From US20190117555A1, “SUBLINGUAL COMPOSITIONS COMPRISING NATURAL EXTRACTS AND USES THEREOF” (HARMONIC PHARMA, priority 2016, published 2019)

Legend:
[1] = Trolox Equivalent Antioxidant Capacity (TEAC) assay; conditions: per 1 g of product; FIG. 2
Method: Trolox Equivalent Antioxidant Capacity (TEAC) Assay
ABTS radical cation (ABTS•+) was produced by reacting 7 mM ABTS stock solution with 2.45 mM potassium persulfate and allowing the mixture to stand in the dark at room temperature for 12-16 h before being used. Next ABTS•+solution was diluted with PBS (Phosphate Buffer Saline) (pH 7.4) to an absorbance of 0.5 at 734 nm and equilibrated at 30° C. 200 μl of ABTS•+ and (10, 20, 35, 50, 70, 80 μl) of product solutions (0.5 mg/L) was mixed and adjusted to 300 μl with buffer solution. After 15 min incubation, the optical density was measured. The assays were performed in quadruplicate (n=4). Efficacy is expressed as a value of EC50 (the smaller value of EC50 corresponds to the stronger antioxidant activity).

[2] = Total AntiOxidant Power (PAOT) assay; conditions: for total antioxidant efficacy (PAOT): n=4, FIG. 3 and 4
Method: 2.4. Total AntiOxidant Power (PAOT®) Assay (Oxidative Stress)
Technology PAOT/POT® (Total AntiOxidant Power/Total Oxidant Power) is based on the electrochemical nature of redox reactions: a balance between antioxidants and oxidants [www.ie-antioxydants.com]. The assays were carried out in quadruplicate (n=4) (The higher value corresponds to the best antioxidant efficacy).

[3] = Oxygen Radical Absorbance Capacity (ORAC) assay; conditions: n=4
Text: 2.3. Oxygen Radical Absorbance Capacity (ORAC) Assay
(Ou B., Hampsch-Woodill M. and Prior R. L.: “Development and Validation of an Improved Oxygen Radical Absorbance Capacity Assay Using Fluorescein as the Fluorescent Probe”, J. Agric. Food Chem., 2001, 49 (10), 4619-4626)
Measurement of antioxidant capacity by the ORAC method is based on the detection of fluorescence drop of fluorescein (FL) thanks to its reaction with peroxyl radical ROO*, in a food matrix containing antioxidant compounds. Fluorescence was read with an excitation wavelength of 485 nm and an emission filter of 528 nm. AAPH solution and FL were prepared in a phosphate buffer solution at 75 mM at pH 7.4. The control of this reaction is the trolox which is also prepared in the same buffer. Six different quantities (10, 20, 35, 50, 70, 80 μl) of product with concentration of 0.5 mg/L were placed in the wells of the microplate with FL and adjusted at the same volume with buffer solution (80 μl). The mixture was preincubated for 30 min at 37° C., before rapidly adding the AAPH solution (220 μl) using a multichannel pipette. The microplate was immediately placed in the reader and the fluorescence recorded every 6 min for 240 min. A blank with FL and AAPH using sodium phosphate buffer instead of the antioxidant solution was used. The inhibition capacity was expressed as reference compound equivalents (μM), and is quantified by integrating of the area under the curve (AUC) of the fluorescein. The assays were carried out in quadruplicate (n=4). Efficacy of the tested samples is expressed as reference ORAC units per gram of products (the higher value corresponds to the stronger antioxidant activity).

[4] = biological target: T1, Human COX-2 (Homo sapiens, UniProt P35354); experiment: Human COX-2 inhibition assay; assay type: biochemical; conditions: HMR 10 μM; extract equiv. 10 μM
T1 sequence (P35354 18-604): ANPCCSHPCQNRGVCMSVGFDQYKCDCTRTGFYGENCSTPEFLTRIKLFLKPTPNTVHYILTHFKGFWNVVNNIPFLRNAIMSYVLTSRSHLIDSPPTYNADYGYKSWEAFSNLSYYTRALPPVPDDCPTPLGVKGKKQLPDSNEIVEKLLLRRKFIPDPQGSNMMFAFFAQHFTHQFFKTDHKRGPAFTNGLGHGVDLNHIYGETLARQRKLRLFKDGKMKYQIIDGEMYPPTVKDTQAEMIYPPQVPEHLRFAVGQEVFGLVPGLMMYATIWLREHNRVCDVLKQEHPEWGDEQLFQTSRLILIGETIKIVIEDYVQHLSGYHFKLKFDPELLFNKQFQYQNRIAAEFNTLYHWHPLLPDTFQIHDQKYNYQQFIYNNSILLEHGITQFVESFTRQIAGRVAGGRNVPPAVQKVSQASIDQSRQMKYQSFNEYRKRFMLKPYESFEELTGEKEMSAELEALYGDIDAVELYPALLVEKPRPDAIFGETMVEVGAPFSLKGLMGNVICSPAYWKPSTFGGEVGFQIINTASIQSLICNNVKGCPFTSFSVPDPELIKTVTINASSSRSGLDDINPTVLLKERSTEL
Text: The results are expressed as a percent inhibition of the control enzyme activity.

[5] = test system: IL-1β; experiment: IL-1β release by LPS-stimulated PBMCs (HTRF); assay type: cell-based; conditions: Homo sapiens, PBMC, 5 μg/mL LPS, 24 h, read-out: % inhibition IL-1β (Standard deviation)
Method: (§1) Interleukin-1beta (IL-1beta) and tumor necrosis factor-alpha (TNF-alpha) mediate the development of numerous inflammatory diseases. IL-1beta and TNF-alpha therefore constitute suitable biomarkers to characterize the anti-inflammatory property of compounds of the part of branch extracts of the invention.
(§2) Peripheral blood mononuclear cells (PBMCs) were prepared from the peripheral blood of healthy donors (Etablissement Français du Sang) according to Kümmerle et al. (J Med Chem. 2012, 55, 7525-7545) with slight modifications. PBMCs were isolated using Histopaque gradient (Sigma), washed in Hanks' balanced salt solution (Sigma) and were then cultured in RPMI-1640 medium (Sigma) supplemented with 10% (v/v) fetal bovine serum (FBS) (PAA), 100 U/mL penicillin and 100 μg/mL streptomycin (PAA). PBMCs were seeded into 96-well plates (8×10^4 cells/well) and stimulated with 5 μg/mL LPS (Lipopolysaccharides, Sigma), into a total volume of 120 μL per well. HMR was re-suspended in DMSO and tested at 10, 30, and 100 μM (DMSO 1%) in duplicate. […] Cells incubation was realized at 37° C. (5% CO2).
(§3) After 24 h, PBMCs supernatants were transferred into a 384-well plate. Cytokine detection was performed using HTRF technology (Cisbio bioassays) for TNF-α (62TNFPEC), IL-1β (62IL1PEC) according to supplier recommendations. Reading was performed after 3 h of incubation using Envision multi-labelled reader (PerkinElmer) using supplier recommended parameters.

[6] = test system: TNF-α; experiment: TNF-α release by LPS-stimulated PBMCs (HTRF); assay type: cell-based; conditions: Homo sapiens, PBMC, 5 μg/mL LPS, 24 h, read-out: % inhibition TNF-α (Standard deviation)
Method: as §1, §2, §3

[7] = biological target: T2, Human 5-LO (Homo sapiens, UniProt P09917); experiment: Human 5-LO inhibition assay; assay type: biochemical; conditions: HMR 10 μM; extract equiv. 10 μM
T2 sequence (P09917 1-674): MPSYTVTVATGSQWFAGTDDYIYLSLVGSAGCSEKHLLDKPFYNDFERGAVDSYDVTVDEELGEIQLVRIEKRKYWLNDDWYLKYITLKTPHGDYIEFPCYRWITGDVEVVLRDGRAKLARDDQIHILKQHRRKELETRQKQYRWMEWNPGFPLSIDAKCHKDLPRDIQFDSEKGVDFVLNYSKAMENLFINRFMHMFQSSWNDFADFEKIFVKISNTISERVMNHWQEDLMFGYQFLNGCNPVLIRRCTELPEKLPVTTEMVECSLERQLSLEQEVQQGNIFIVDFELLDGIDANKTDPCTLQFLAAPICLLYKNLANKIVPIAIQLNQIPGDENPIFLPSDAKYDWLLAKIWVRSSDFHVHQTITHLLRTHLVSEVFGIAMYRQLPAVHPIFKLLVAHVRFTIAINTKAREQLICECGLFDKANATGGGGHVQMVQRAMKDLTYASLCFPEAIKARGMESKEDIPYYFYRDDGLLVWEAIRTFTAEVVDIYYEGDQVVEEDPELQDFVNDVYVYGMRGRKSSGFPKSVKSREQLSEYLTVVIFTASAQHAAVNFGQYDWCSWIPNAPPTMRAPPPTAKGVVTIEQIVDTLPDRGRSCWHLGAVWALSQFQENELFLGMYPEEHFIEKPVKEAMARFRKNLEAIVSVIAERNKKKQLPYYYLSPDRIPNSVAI
Method: Human 5-LO Inhibition Assay:
The test compound, reference compound or water (control) were preincubated for 5 min at room temperature with 10^4 lysed cells/well in a buffer containing 50 mM Tris-HCl (pH 7.4), 5 mM CaCl2, 2 mM EDTA, 1 μM ATP and 50 nM fluorescent probe dihydrorhodamine 123. The fluorescence intensity was then measured at λex=485 nm and λem=535 nm using a microplate reader (Envision, Perkin Elmer). This measurement at t=0 allowed the detection of any compound interference with the fluorimetric detection method at these wavelengths. Thereafter, the reaction was initiated by adding 25 μM of the substrate arachidonic acid and the mixture was incubated for 20 min at room temperature. The reaction was stopped by adding a buffer containing 67% acetonitrile and 0.2% acetic acid and the fluorescence intensity emitted by the reaction product rhodamine 123 was measured at the same wavelengths (t=20). The enzyme activity was determined by subtracting the signal measured at t=0 from that measured at t=20.
The results are expressed as a percent inhibition of the control activity.

In the case of `O=C1OC[C@H](Cc2cccc(O)c2)[C@H]1Cc1cccc(O)c1` [enterolactone], the “antioxidant activity of 1 g of product equivalent to g of trolox” value [1] is reported as 0.13 g, the “antioxidant activity of 1 g of product equivalent to g of vitamin E” value [1] is reported as 0.19 g and the “total antioxidant efficacy (PAOT)” value [2] is reported as 1.06 mmol/g equivalent of antioxidant. For the same molecule, the “μmol Trolox/g tested product” value [3] was 560 ± 50 μmol Trolox/g tested product, the “μmol Vit. C/g tested product” value [3] was 110 ± 10 μmol Vit. C/g tested product and the “μmol Vit. E/g tested product” value [3] was 105 ± 10 μmol Vit. E/g tested product. For the same molecule, the “μmol β-carotene/g tested product” value [3] was 30 ± 2 μmol β-carotene/g tested produ.

For `OC[C@H](Cc1cccc(O)c1)[C@H](CO)Cc1cccc(O)c1` [enterodiol], the “antioxidant activity of 1 g of product equivalent to g of trolox” value [1] was 0.15 g, the “antioxidant activity of 1 g of product equivalent to g of vitamin E” value [1] was 0.22 g and the “total antioxidant efficacy (PAOT)” value [2] was 1.07 mmol/g equivalent of antioxidant. The “μmol Trolox/g tested product” value [3] was 500 ± 60 μmol Trolox/g tested product, the “μmol Vit. C/g tested product” value [3] was 700 ± 100 μmol Vit. C/g tested product and the “μmol Vit. E/g tested product” value [3] was 600 ± 80 μmol Vit. E/g tested product. For the same molecule, the “μmol β-carotene/g tested product” value [3] was 165 ± 5 μmol β-carotene/g tested produ.

In the case of `COc1cc(C[C@H]2C(=O)OC[C@@H]2[C@H](O)c2ccc(O)c(OC)c2)ccc1O` (stereo in doubt) [HMR, Hydroxymatairesinol], the inhibition at 10 µM [4] is reported as 18.7%, the inhibition at 10 µM ([5]; 10 μM) is reported as 10% and the inhibition at 30 µM ([5]; 30 μM) is reported as 25%. For the same molecule, the inhibition at 100 µM ([5]; 100 μM) was 28%, the inhibition at 10 µM ([6]; 10 μM) was 7% and the inhibition at 30 µM ([6]; 30 μM) was 15%. The inhibition at 100 µM ([6]; 100 μM) was 26%, the inhibition at 10 µM [7] was 14.7% and the “total antioxidant efficacy (PAOT)” value [2] was 4.99 mmol/g equivalent of antioxidant. The “antioxidant activity with regard to Trolox” value ([2]; reference Trolox) was 0.62 gram of reference compound per gram of tested product, the “antioxidant activity with regard to Vitamin E” value ([2]; reference Vitamin E (tocopherol)) was 1.07 gram of reference compound per gram of tested product and the “antioxidant activity with regard to β-carotene” value ([2]; reference β-carotene) was 2.68 gram of reference compound per gram of tested product. For the same molecule, the “μmol Trolox/g tested product” value [3] was 210 ± 50 μmol Trolox/g tested product, the “μmol Vit. C/g tested product” value [3] was 110 ± 10 μmol Vit. C/g tested product and the “μmol Vit. E/g tested product” value [3] was 105 ± 10 μmol Vit. E/g tested product. The “μmol β-carotene/g tested product” value [3] was 27 ± 2 μmol β-carotene/g tested produ.
